Test system: 327498-153-R-J2-PDC complex spheroid growth, % test/control
Assay: Anticancer human tumor 327498-153-R-J2-PDC patient-derived uterine carcinosarcoma cell line growth inhibition [Asc]
Conditions: for IC50: curve of first compound; for viability, T/C: stronger effect = lower value
Outline: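 Complex spheroids combining tumor cells with HUVEC endothelial cells and human MSCs, at 37 degrees C, 5% CO2; agents tested alone or combined, half-log dilutions from at or near clinical Cmax, or 10 microM if Cmax unknown.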
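Further: spheroids exposed to compound for 7 days after 3 days of growth.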
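Wherever viability, T/C is given: 100% = DMSO vehicle control wells.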

## CCN1C(C(=O)NC23CCC(C(=O)O)(CC2)CC3)C(c2cccc(Cl)c2F)C2(C(=O)Nc3cc(Cl)ccc32)C12CCCCC2 (stereo not given) + CNC(C)C(=O)NC1CN(S(=O)(=O)c2cccc(S(=O)(=O)N3CCC4CCC(C(=O)NC(c5ccccc5)c5ccccc5)N4C(=O)C(NC(=O)C(C)NC)C3)c2)CCC2CCC(C(=O)NC(c3ccccc3)c3ccccc3)N2C1=O
Second compound 0.01 µM
  IC50: 193 nM
Second compound 0.0316 µM
  IC50: 151 nM
Second compound 0.1 µM
  IC50: 173 nM
Second compound 0.316 µM
  IC50: 173 nM
Second compound 1 µM
  IC50: 150 nM
Second compound 0.01 µM, first compound 0.00949 µM
  viability, T/C: 88.1%
Second compound 0.01 µM, first compound 0.03 µM
  viability, T/C: 90.9%
Second compound 0.01 µM, first compound 0.0949 µM
  viability, T/C: 72.2%
Second compound 0.01 µM, first compound 0.3 µM
  viability, T/C: 35.9%
Second compound 0.01 µM, first compound 0.949 µM
  viability, T/C: 8.7%
Second compound 0.01 µM, first compound 3 µM
  viability, T/C: 3.12%
Second compound 0.0316 µM, first compound 0.00949 µM
  viability, T/C: 90.8%
Second compound 0.0316 µM, first compound 0.03 µM
  viability, T/C: 83.9%
Second compound 0.0316 µM, first compound 0.0949 µM
  viability, T/C: 62%
Second compound 0.0316 µM, first compound 0.3 µM
  viability, T/C: 32.4%
Second compound 0.0316 µM, first compound 0.949 µM
  viability, T/C: 7.36%
Second compound 0.0316 µM, first compound 3 µM
  viability, T/C: 1.14%
Second compound 0.1 µM, first compound 0.00949 µM
  viability, T/C: 97.8%
Second compound 0.1 µM, first compound 0.03 µM
  viability, T/C: 87.8%
Second compound 0.1 µM, first compound 0.0949 µM
  viability, T/C: 67.2%
Second compound 0.1 µM, first compound 0.3 µM
  viability, T/C: 35.1%
Second compound 0.1 µM, first compound 0.949 µM
  viability, T/C: 9.87%
Second compound 0.1 µM, first compound 3 µM
  viability, T/C: 1.93%
Second compound 0.316 µM, first compound 0.00949 µM
  viability, T/C: 101%
Second compound 0.316 µM, first compound 0.03 µM
  viability, T/C: 89.7%
Second compound 0.316 µM, first compound 0.0949 µM
  viability, T/C: 67.1%
Second compound 0.316 µM, first compound 0.3 µM
  viability, T/C: 35.8%
Second compound 0.316 µM, first compound 0.949 µM
  viability, T/C: 9.28%
Second compound 0.316 µM, first compound 3 µM
  viability, T/C: 5.81%
Second compound 1 µM, first compound 0.00949 µM
  viability, T/C: 100%
Second compound 1 µM, first compound 0.03 µM
  viability, T/C: 82.1%
Second compound 1 µM, first compound 0.0949 µM
  viability, T/C: 64.8%
Second compound 1 µM, first compound 0.3 µM
  viability, T/C: 32.3%
Second compound 1 µM, first compound 0.949 µM
  viability, T/C: 4.68%
Second compound 1 µM, first compound 3 µM
  viability, T/C: 1.29%

## C=CC(=O)N1CCN(c2nc(=O)n(-c3c(C)ccnc3C(C)C)c3nc(-c4c(O)cccc4F)c(F)cc23)C(C)C1 (stereo not given) + CCN1C(C(=O)NC23CCC(C(=O)O)(CC2)CC3)C(c2cccc(Cl)c2F)C2(C(=O)Nc3cc(Cl)ccc32)C12CCCCC2
Second compound 0.03 µM
  IC50: > 10000 nM
Second compound 0.0949 µM
  IC50: < 31.6 nM
Second compound 0.3 µM
  IC50: < 31.6 nM
Second compound 0.949 µM
  IC50: < 31.6 nM
Second compound 3 µM
  IC50: < 31.6 nM
Second compound 0.03 µM, first compound 0.0316 µM
  viability, T/C: 80.2%
Second compound 0.03 µM, first compound 0.1 µM
  viability, T/C: 66.8%
Second compound 0.03 µM, first compound 0.316 µM
  viability, T/C: 61.3%
Second compound 0.03 µM, first compound 1 µM
  viability, T/C: 61%
Second compound 0.03 µM, first compound 3.16 µM
  viability, T/C: 60.4%
Second compound 0.03 µM, first compound 10 µM
  viability, T/C: 47.7%
Second compound 0.0949 µM, first compound 0.0316 µM
  viability, T/C: 48.1%
Second compound 0.0949 µM, first compound 0.1 µM
  viability, T/C: 43.3%
Second compound 0.0949 µM, first compound 0.316 µM
  viability, T/C: 39.1%
Second compound 0.0949 µM, first compound 1 µM
  viability, T/C: 40.8%
Second compound 0.0949 µM, first compound 3.16 µM
  viability, T/C: 31%
Second compound 0.0949 µM, first compound 10 µM
  viability, T/C: 23.5%
Second compound 0.3 µM, first compound 0.0316 µM
  viability, T/C: 25.8%
Second compound 0.3 µM, first compound 0.1 µM
  viability, T/C: 22.3%
Second compound 0.3 µM, first compound 0.316 µM
  viability, T/C: 21.1%
Second compound 0.3 µM, first compound 1 µM
  viability, T/C: 13.9%
Second compound 0.3 µM, first compound 3.16 µM
  viability, T/C: 15.8%
Second compound 0.3 µM, first compound 10 µM
  viability, T/C: 10.9%
Second compound 0.949 µM, first compound 0.0316 µM
  viability, T/C: 6.85%
Second compound 0.949 µM, first compound 0.1 µM
  viability, T/C: 10.2%
Second compound 0.949 µM, first compound 0.316 µM
  viability, T/C: 5.74%
Second compound 0.949 µM, first compound 1 µM
  viability, T/C: 6.83%
Second compound 0.949 µM, first compound 3.16 µM
  viability, T/C: 5.12%
Second compound 0.949 µM, first compound 10 µM
  viability, T/C: 4.58%
Second compound 3 µM, first compound 0.0316 µM
  viability, T/C: 2.47%
Second compound 3 µM, first compound 0.1 µM
  viability, T/C: 2.14%
Second compound 3 µM, first compound 0.316 µM
  viability, T/C: 2.66%
Second compound 3 µM, first compound 1 µM
  viability, T/C: 2.75%
Second compound 3 µM, first compound 3.16 µM
  viability, T/C: 3.23%
Second compound 3 µM, first compound 10 µM
  viability, T/C: 2.77%

## CNC(C)C(=O)NC1CN(S(=O)(=O)c2cccc(S(=O)(=O)N3CCC4CCC(C(=O)NC(c5ccccc5)c5ccccc5)N4C(=O)C(NC(=O)C(C)NC)C3)c2)CCC2CCC(C(=O)NC(c3ccccc3)c3ccccc3)N2C1=O (stereo not given) + Cc1c(S(C)(=O)=O)c(-c2cc(F)cc(N3CCN(c4ccc(NS(=O)(=O)c5ccc(NC(CCN6CCC(C(=O)OCCCP(=O)(O)O)CC6)CSc6ccccc6)c(S(=O)(=O)C(F)(F)F)c5)cc4)CC3)c2)c(-c2ccc(Cl)cc2)n1C(C)C
Second compound 0.1 µM
  IC50: > 1000 nM
Second compound 0.316 µM
  IC50: > 1000 nM
Second compound 1 µM
  IC50: > 1000 nM
Second compound 3.16 µM
  IC50: > 1000 nM
Second compound 10 µM
  IC50: > 1000 nM
Second compound 0.1 µM, first compound 0.00316 µM
  viability, T/C: 94.1%
Second compound 0.1 µM, first compound 0.01 µM
  viability, T/C: 91.2%
Second compound 0.1 µM, first compound 0.0316 µM
  viability, T/C: 98%
Second compound 0.1 µM, first compound 0.1 µM
  viability, T/C: 92.3%
Second compound 0.1 µM, first compound 0.316 µM
  viability, T/C: 93.8%
Second compound 0.1 µM, first compound 1 µM
  viability, T/C: 82.4%
Second compound 0.316 µM, first compound 0.00316 µM
  viability, T/C: 93.1%
Second compound 0.316 µM, first compound 0.01 µM
  viability, T/C: 93.3%
Second compound 0.316 µM, first compound 0.0316 µM
  viability, T/C: 96.6%
Second compound 0.316 µM, first compound 0.1 µM
  viability, T/C: 87.2%
Second compound 0.316 µM, first compound 0.316 µM
  viability, T/C: 87.7%
Second compound 0.316 µM, first compound 1 µM
  viability, T/C: 83.9%
Second compound 1 µM, first compound 0.00316 µM
  viability, T/C: 100%
Second compound 1 µM, first compound 0.01 µM
  viability, T/C: 90.6%
Second compound 1 µM, first compound 0.0316 µM
  viability, T/C: 97%
Second compound 1 µM, first compound 0.1 µM
  viability, T/C: 80.3%
Second compound 1 µM, first compound 0.316 µM
  viability, T/C: 82.1%
Second compound 1 µM, first compound 1 µM
  viability, T/C: 92.2%
Second compound 3.16 µM, first compound 0.00316 µM
  viability, T/C: 84.4%
Second compound 3.16 µM, first compound 0.01 µM
  viability, T/C: 90.8%
Second compound 3.16 µM, first compound 0.0316 µM
  viability, T/C: 88.4%
Second compound 3.16 µM, first compound 0.1 µM
  viability, T/C: 86%
Second compound 3.16 µM, first compound 0.316 µM
  viability, T/C: 89.8%
Second compound 3.16 µM, first compound 1 µM
  viability, T/C: 85%
Second compound 10 µM, first compound 0.00316 µM
  viability, T/C: 173%
Second compound 10 µM, first compound 0.01 µM
  viability, T/C: 166%
Second compound 10 µM, first compound 0.0316 µM
  viability, T/C: 156%
Second compound 10 µM, first compound 0.1 µM
  viability, T/C: 146%
Second compound 10 µM, first compound 0.316 µM
  viability, T/C: 153%
Second compound 10 µM, first compound 1 µM
  viability, T/C: 136%
